Data on one compound can be found in article PMC3701070 (PLoS ONE, 2013).

For test [1], the system named is pMEK and pERK in HCT-116 (wild-type BRAF, mutant KRAS) cells. Kind of test: Western blot, paradoxical MAPK activation in HCT-116 cells. In kind it is cell-based, human. Particulars: 100 or 300 nM dabrafenib, co-treatment with 50 nM or 5 nM trametinib, 1 h. On the procedure:
Cells were lysed in 25 mM Tris-HCl pH 7.5, 2 mM EDTA, 2 mM EGTA, 1% Triton X-100, 0.1% SDS, 50 mM sodium-β-glycerophosphate, 2 mM Na3VO4, 12.5 mM sodium pyrophosphate, 2× Complete EDTA-free mini protease inhibitor tablets (Roche), 2× phosphatase inhibitor cocktails I and II (Sigma-Aldrich). Protein concentrations were determined by Bio-Rad DC™ or dye-based protein assays and lysates were resolved by SDS-PAGE (Invitrogen NuPAGE®) and transferred to PVDF membranes. Membranes were blocked with Odyssey® (LI-COR Biosciences) blocking buffer and incubated with primary antibodies overnight at 4°C. Blots were washed with PBS containing 0.1% Tween-20, incubated with secondary antibodies, and washed again prior to signal detection on a LI-COR Odyssey® reader.
Lysates were immunoblotted for total ERK (tERK) and dual-phosphorylated ERK (ppERK) (B).

In test [2] the test system is HCT-116. More on the design: method as in PMID 21245089. As to conditions: HCT-116 cells; read-out: gIC50; cited from earlier work.

For the compound `CC(=O)Nc1cccc(-n2c(=O)n(C3CC3)c(=O)c3c(Nc4ccc(I)cc4F)n(C)c(=O)c(C)c32)c1` [trametinib, reference compound], the “effect on dabrafenib-induced pERK upregulation” value in test [1] is on record as “abolished”. In addition, the IC50 in test [2] was 21 nM.
